Laboratory results published in patent US6462023B1, “Cytostatic agents” (British Biotech Pharmaceuticals, Ltd., priority 1988, dated 2002).

test system: histiocytic lymphoma (U937); experiment: cell proliferation assay ([methyl-3H] thymidine incorporation), U937; assay type: cell-based, human; details: 6 μM; comparison compound
Procedure: (§1) Two human cell lines namely a histiocytic lymphoma (U937) and a melanoma (RPMI-7951) were seeded into 30 mm^2 tissue culture wells, in the appropriate culture medium supplemented with 10% fetal calf serum at a density of 250 cells/mm^2. Six hours later the test compounds were added in the same culture medium to the cells to give a final concentration of 6 μM. Control wells contained cells supplemented with the same culture medium containing the equivalent amount of drug vehicle, which in this case was DMSO at a final concentration of 0.08%. After 72 hours in culture the cells were pulsed for 3 hours with [methyl-^3[H] Thymidine] (2 μCi/ml) and then harvested onto filter mats and DNA associated radioactivity counted. Results are expressed as percentage of control ^3[H] Thymidine incorporation (n=6±1 stdv).
Further examples were tested in the U937 assay described above at 6 μM and the results, expressed as percentage of control ^3[H] Thymidine incorporation (n=6±1 stdv), are set out in the following Table 2.
as §1, with “A” for “Two”, “line,” for “lines”, “(U937), was” for “(U937) and a melanoma (RPMI-7951) were”, “30MM^2” for “30 mm^2”, “cellS/MM^2.” for “cells/mm^2.”, “were” for “are”

Compound	activity in the U937 assay relative to that observed with the vehicle alone
O=c1[nH]cc(F)c(=O)[nH]1 [5-fluorouracil, reference compound]	50%

same assay, conditions: Homo sapiens, U-937; Table 1; final concentration 6 μM; 72 hours in culture, 3 hours pulse; n=6; read-out: U937: percentage of control 3[H] Thymidine incorporation

Compound	activity at 6 µM
COC(=O)[C@@H](Cc1ccccc1)NC(=O)[C@@H](CC(C)C)[C@@H](C)C(=O)NO [Example 4, 3S-(2-Phenyl-1R-methylcarboxy-ethylcarbamoyl)-2R, 5-dimethylhexanohydroxamic acid, reference compound]	93%

same assay, conditions: Homo sapiens, U-937; Table 2; 6 μM; 72 hours in culture; n=6; read-out: U937: percentage of control 3[H] Thymidine incorporation

Compound	activity at 6 µM
C=CC[C@H](C(=O)NO)[C@@H](CC(C)C)C(=O)N[C@@H](Cc1ccccc1)C(=O)OC(C)(C)C [Example 6, 2S-(3S-Hydroxycarbamoyl-2R-isobutyl-hex-5-enoylamino)-3-phenyilpropionic acid tert-butyl ester]	18%
CC(C)C[C@H](CC(=O)NO)C(=O)N[C@@H](Cc1ccccc1)C(=O)OC(C)C [Example 7, 2S-(2R-Hydroxycarbamoylmethyl-4-methyl-pentanoylamino)-3-phenyl-propionic acid isopropyl ester]	0%
CC(C)C[C@@H](C(=O)N[C@@H](Cc1ccccc1)C(=O)OC(C)C)[C@H](O)C(=O)NO [Example 8, 2S-[2R-(S-Hydroxy-hydroxycarbamoyl-methyl)-4-methyl-pentanoylamine]-3-phenyl-propionic acid isopropyl ester]	1%
CC(C)C[C@@H](C(=O)N[C@@H](Cc1ccccc1)C(=O)OC(C)C)[C@H](C)C(=O)NO [Example 9, 2S-[2R-(1S-Hydroxycarbamoyl-ethyl)-4-methyl-pentanoylamino]-3-phenyl-propionic acid isopropyl ester]	8%
CCCCCC[C@H](CC(=O)NO)C(=O)N[C@@H](Cc1ccccc1)C(=O)OC(C)C [Example 10, 2S-(2R-Hydroxycarbamoylmethyl-octanoylamino)-3-phenyl-propionic acid isopropyl ester]	1%
CC(C)C[C@@H](C(=O)N[C@@H](Cc1ccccc1)C(=O)OC1CCCC1)[C@H](O)C(=O)NO [Example 11, 2S-[2R-(S-Hydroxy-hydroxycarbamoyl-methyl)-4-methyl-pentanoylamino]-3-phenyl-propionic acid cyclopentyl ester]	0%
C=CC[C@H](C(=O)NO)[C@@H](CC(C)C)C(=O)N[C@H](C(=O)OC1CCCC1)C(C)CC (stereo partly drawn) [Example 12, 2S-(3S-Hydroxycarbamoyl-2R-isobutyl-hex-5-enoylamino)-3S-methyl-pentanoic acid cyclopentyl ester]	10%
C=CC[C@H](C(=O)NO)[C@@H](CC(C)C)C(=O)N[C@H](Cc1ccccc1)C(=O)OCCOC [Example 13, 2S-(3S-Hydroxycarbamoyl-2R-isobutyl-hex-5-enoylamino)-3-phenylpropionic acid 2-methoxy-ethyl ester]	4%
COCCOC(=O)[C@@H](Cc1ccccc1)NC(=O)[C@H](CC(C)C)[C@H](C)C(=O)NO [Example 14, 2S-[2R-(1S-Hydroxycarbamoyl-ethyl)-4-methyl-pentanoylamino]-3-phenyl-propionic acid 2-methoxy-ethyl ester]	33%
CCC[C@H](C(=O)NO)[C@@H](CC(C)C)C(=O)N[C@@H](C(=O)OCCOC)C(C)(C)C [Example 15, 2S-(3S-Hydroxycarbamoyl-2R-isobutyl-hexanoylamino)-3,3-dimethyl-butyric acid 2-methoxy-ethyl ester]	19%
CO[C@H](C(=O)NO)[C@@H](CC(C)C)C(=O)N[C@@H](Cc1ccccc1)C(=O)OC(C)C [Example 16, 2S-[2R-(S-Hydroxycarbamoyl-methoxy-methyl)-4-methyl-pentanoylamino]-3-phenyl-propionic acid isopropyl ester]	2%
CC(C)C[C@@H](C(=O)N[C@@H](Cc1ccccc1)C(=O)OC(C)C)[C@H](CSc1cccs1)C(=O)NO [Example 17, 2S-{2R-[1S-Hydroxycarbamoyl-2-(thiophen-2-ylsulphanyl)-ethyl]-4-methyl-pentanoylamino}-3-phenyl-propionic acid isopropyl ester]	0%
COCCOC(=O)[C@H](NC(=O)[C@H](CC(C)C)[C@H](C)C(=O)NO)C(C)(C)C [Example 18, 2S-[2R-(1S-Hydroxycarbamoyl-ethyl)-4-methyl-pentanoylamino]-3,3-dimethyl-butyric acid 2-methoxy-ethyl ester]	54%
C=CC[C@H](C(=O)NO)[C@@H](CC(C)C)C(=O)N[C@@H](Cc1ccccc1)C(=O)OC1CCCC1 [Example 20, 2S-(3S-Hydroxycarbamoyl-2R-isobutyl-hex-5-enoylamino)-3-phenylpropionic acid cyclopentyl ester]	0%
CCC[C@H](C(=O)NO)[C@@H](CC(C)C)C(=O)N[C@@H](Cc1ccccc1)C(=O)OC(C)C [Example 21, 2S-(3S-Hydroxycarbamoyl-2R-isobutyl-hexanoylamino)-3-phenylpropionic acid isopropyl ester]	1%
C=CC[C@H](C(=O)NO)[C@@H](CC(C)C)C(=O)N[C@H](C(=O)OC(C)C)C(C)(C)C [Example 22, 2S-(3S-Hydroxycarbamoyl-2R-isobutyl-hex-5-enoylamino)-3,3-dimethyl-butyric acid isopropyl ester]	51%
C=CC[C@H](C(=O)NO)[C@@H](CC(C)C)C(=O)N[C@H](Cc1ccccc1)C(=O)OC(C)C [Example 23, 2R-(3S-Hydroxycarbamoyl-2R-isobutyl-hex-5-enoylamino)-3-phenylpropionic acid isopropyl ester]	36%
CO[C@H](C(=O)NO)[C@@H](CC(C)C)C(=O)N[C@H](C(=O)OC(C)C)C(C)(C)C [Example 24, 2S-[2R-(S-Hydroxycarbamoyl-methoxy-methyl)-4-methyl-pentanoylamino]-3,3-dimethyl-butyric acid isopropyl ester]	50%
C=CC[C@H](C(=O)NO)[C@@H](CC(C)C)C(=O)N(C)[C@@H](Cc1ccccc1)C(=O)OC(C)C [Example 25, 2S-{(3S-Hydroxycarbamoyl-2R-isobutyl-hex-5-enoyl)-methyl-amino)-3-phenylpropionic acid isopropyl ester]	34%
C=CC[C@H](C(=O)NO)[C@@H](CC(C)C)C(=O)N[C@@H](Cc1ccccc1)C(=O)OCc1ccccc1 [Example 26, 2S-(3S-Hydroxycarbamoyl-2R-isobutyl-hex-5-enoylamino)-3-phenylpropionic acid benzyl ester]	0%
C=CC[C@H](C(=O)NO)[C@@H](CC(C)C)C(=O)N[C@@H](CC(C)C)C(=O)OC1CCCC1 [Example 27, 2S-(3S-Hydroxycarbamoyl-2R-isobutyl-hex-5-enoylamino)-4-methyl-pentanoic acid cyclopentyl ester]	0%
C=CC[C@H](C(=O)NO)[C@@H](CC(C)C)C(=O)N[C@@H](CC1CCCCC1)C(=O)OC1CCCC1 [Example 28, 3-Cyclohexyl-2S-(3S-hydroxycarbamoyl-2R-isobutyl-hex-5-enoylamino)-propionic acid cyclopentyl ester]	0%
C=CC[C@H](C(=O)NO)[C@@H](CC(C)C)C(=O)N[C@@H](Cc1ccccc1)C(=O)OC1CCN(C)CC1 [Example 29, 2S-(3S-Hydroxycarbamoyl-2R-isobutyl-hex-5-enoylamino)-3-phenylpropionic acid 1-methyl-piperidin-4-yl ester]	49%
C=CC[C@H](C(=O)NO)[C@@H](CC(C)C)C(=O)N[C@@H](Cc1ccccc1)C(=O)OC(CC)CC [Example 30, 2S-(3S-Hydroxycarbamoyl-2R-isobutyl-hex-5-enoylamino)-3-phenylpropionic acid 1-ethyl-propyl ester]	6%
C=CC[C@H](C(=O)NO)[C@@H](CC(C)C)C(=O)N[C@@H](Cc1ccccc1)C(=O)O[C@@H](C)CCC [Example 31, 2S-(3S-Hydroxycarbamoyl-2R-isobutyl-hex-5-enoylamino)-3-phenylpropionic acid 1S-methyl-butyl ester]	7%
C=CC[C@H](C(=O)NO)[C@@H](CC(C)C)C(=O)N[C@@H](Cc1ccccc1)C(=O)OC1CCCCC1 [Example 32, 2S-(3S-Hydroxycarbamoyl-2R-isobutyl-hex-5-enoylamino)-3-phenylpropionic acid cyclohexyl ester]	0%
C=CC[C@H](C(=O)NO)[C@@H](CC(C)C)C(=O)N[C@@H](Cc1ccccc1)C(=O)O[C@H](C)CCC [Example 34, 2S-(3S-Hydroxycarbamoyl-2R-isobutyl-hex-5-enoylamino)-3-phenylpropionic acid 1R-methyl-butyl ester]	3%
